# Patent US20040024024A1, “Aromatic sulfone hydroxamates and their use as protease inhibitors” (priority 2001, published 2004)
# pKi: −log10 of the molar value. “And” between values parts separate entries of the source, which are not always exact repeats. Equal entries are not always repeated. Structures can show the parent of a compound that is named as a salt.
# Target: T1, Human recombinant MMP-2 (Homo sapiens, UniProt P08253)
# T1 construct: made in house; host or cells: MMP-2-transfected p2AHT2 cells
# T1 sequence (P08253 110-660): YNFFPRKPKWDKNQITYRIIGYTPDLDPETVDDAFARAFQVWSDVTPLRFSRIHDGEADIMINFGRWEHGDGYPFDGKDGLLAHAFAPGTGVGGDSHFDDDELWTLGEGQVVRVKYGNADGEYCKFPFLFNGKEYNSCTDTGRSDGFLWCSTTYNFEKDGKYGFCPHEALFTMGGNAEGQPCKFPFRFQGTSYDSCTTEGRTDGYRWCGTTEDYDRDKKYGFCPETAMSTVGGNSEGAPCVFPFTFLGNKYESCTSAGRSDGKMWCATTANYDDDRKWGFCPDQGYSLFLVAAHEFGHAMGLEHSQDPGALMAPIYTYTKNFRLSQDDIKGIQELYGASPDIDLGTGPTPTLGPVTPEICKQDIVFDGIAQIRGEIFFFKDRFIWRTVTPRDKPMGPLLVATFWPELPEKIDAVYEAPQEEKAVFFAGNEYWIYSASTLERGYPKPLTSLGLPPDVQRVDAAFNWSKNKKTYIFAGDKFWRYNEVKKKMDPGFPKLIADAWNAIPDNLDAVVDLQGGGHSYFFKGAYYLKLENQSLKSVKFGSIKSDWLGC
# Assay: In vitro MMP inhibition, Ki determination (fluorogenic substrate II)
# Assay type: biochemical
# Conditions: substrate (II) 4 μM, 1 hr room temperature; apparent Ki, values in parenthesis
# Experimental: Several hydroxamates and salts thereof were analyzed in in vitro assays to determine their ability to inhibit the MMP cleavage of peptide substrates. Inhibition (Ki) and IC50 constants were calculated from the assayed hydroxamate-MMP interactions.
# Human recombinant MMP-1, MMP-2, MMP-9, MMP-13, and MMP-14 were used in this assay. All enzymes were prepared in Assignee's laboratories following usual laboratory procedures. Protocols for the preparation and use of these enzymes are available in the scientific literature. See, e.g., Enzyme Nomenclature (Academic Press, San Diego, Calif., 1992) (and the citations therein). See also, Frije et al., J. Biol. Chem., 26(24), 16766-73 (1994).
# The MMP-2 proenzyme was purified by gelatin Sepharose chromatography from MMP-2-transfected p2AHT2 cells provided by Dr. Gregory Goldberg of Washington University (St. Louis, Mo.).
# All MMPs were activated using 4-aminophenylmercuric acetate (“APMA”, Sigma Chemical, St. Louis, Mo.) or trypsin. MMP-9 also was activated using human recombinant MMP-3 (purified in Assignee's laboratory following standard cloning and purification techniques).
# Two fluorogenic, methoxycoumarin-containing polypeptide substrates were used in the MMP inhibition assays:
# MCA-ArgProLeuGlyLeuDpaAlaArgGluArgNH2 (II)
# Here, “Dpa” is 3-(2,4-dinitrophenyl)-L-2,3-diaminopropionyl group, and “MCA” is 7-methoxycoumarin-4-yl acetyl. Substrate (I) was purchased from Baychem (Redwood City, Calif.), and substrate II was prepared Assignee's laboratory. Substrate I was used in the IC50 determination assays, while substrate II was used in the Ki determination assays. In the absence of MMP inhibitory activity, either substrate is cleaved at the Gly-Leu peptide bond. This cleavage separates the highly fluorogenic peptide from the 2,4-dinitrophenyl quencher, thus resulting in increase of fluorescent intensity.
# The stock solutions of the assayed hydroxamates (or salts thereof) were prepared in 1% dimethyl sulfoxide (DMSO). These stock solutions were diluted in Buffer A (100 mM Tris-HCl, 100 mM NaCl, 10 mM CaCl2, 0.05% polyoxyethylene 23 lauryl ether, pH 7.5) to obtain solutions with different hydroxamate concentrations, i.e., assay solutions with different concentrations of the assayed MMP inhibitory compound. The experiment controls contained the same amount of Buffer A/DMSO as the assayed sample, but contained no hydroxamate (or salt thereof).
# The assays from which the Ki determinations were made were performed as follows. The assayed hydroxamate samples were incubated in separate wells of untreated white polystyrene plates (Nunc Nalgene International, Rochester, N.Y.), and analyzed on a Tecan SpectraFlour Plus plate reader. The excitation wavelength was 330 nm, and the emission wavelength—420 nm. All samples (assayed hydroxamates and controls) were incubated in separate plate wells at room temperature for 1 hr in the presence of 4 μM of MMP substrate (II). In the absence of MMP inhibitory activity, substrate II was cleaved at the Gly-Leu bond resulting in an increase of relative fluorescence. Inhibition was observed as a reduced rate of this increase in relative fluorescence. The various hydroxamates were analyzed using a single low enzyme concentration with a single substrate concentration fixed at or below the Km. This protocol is a modification of method by Knight et al., FEBS Lett., 296(3), 263-266 (1992). Apparent inhibitory constants were determined by non-linear regression of reaction velocity as a function of inhibitor and enzyme concentration using Morrison's equation, as described by Kuzmic, Anal. Biochem. 286, 45-50 (2000). […] Since the substrate concentration was chosen to be at or below the Km, the apparent Ki's from this analysis were reported as Ki's without correction for the influence of substrate.
row,SMILES,pKi
1,"O=C(NO)C1(S(=O)(=O)c2ccc(OCCCc3nc(-c4ccc(OC(F)(F)F)cc4)no3)cc2)CCOCC1 [Example 31, tetrahydro-N-hydroxy-4-[[4-[3-[3[4-(trifluoromethoxy)phenyl]-1,2,4-oxadiazol-5-yl]propoxy]phenyl]sulfonyl]-2H-pyran-4-carboxamide]",6.38
2,O=C(NO)C1(S(=O)(=O)c2ccc(OCCCc3cccc(-c4ccc(F)cc4)c3)cc2)CCOCC1 [Example 39],5.79
3,O=C(NO)C1(S(=O)(=O)c2ccc(OCCc3cccc(-c4ccccn4)c3)cc2)CCOCC1 [Example 40],6.67
4,"CCN1CCC(C(=O)NO)(S(=O)(=O)c2ccc(OCCCc3nc(-c4ccc(OC(F)(F)F)cc4)no3)cc2)CC1 [Example 41, 1-ethyl-N-hydroxy 4-{[4-(3-{3-[4-(trifluoromethoxy)phenyl]-1,2,4-oxadiazol-5-yl}propoxy)phenyl]sulfonyl}piperidine-4-carboxamide Hydrochloride]",6.38
5,COCCN1CCC(C(=O)NO)(S(=O)(=O)c2ccc(OCCCc3nc(-c4ccc(OC(F)(F)F)cc4)no3)cc2)CC1 [Example 42],6.73
6,CCN1CCC(C(=O)NO)(S(=O)(=O)c2ccc(OCCCc3cccc(-c4ccccc4)c3)cc2)CC1 [Example 46],6.10
7,"COCCN1CCC(C(=O)NO)(S(=O)(=O)c2ccc(OCCCc3cc(-c4ccc(F)cc4F)cs3)cc2)CC1 [Example 47, 4-[(4-{3-[4-(2,4-difluorophenyl)thien-2-l]propoxy}phenyl)sulfonyl]-N-hydroxy-1-(2-methoxyethyl)piperidine-4-carboxamide Hydrochloride]",7.72 and 7.33
8,COCCN1CCC(C(=O)NO)(S(=O)(=O)c2ccc(OCCCn3nnc(-c4ccc(OC(F)(F)F)cc4)n3)cc2)CC1 [Example 48],6.64
9,O=C(NO)C1(S(=O)(=O)c2ccc(OCCCn3nnc(-c4ccc(OC(F)(F)F)cc4)n3)cc2)CCN(C2CC2)CC1 [Example 49],6.36
10,"O=C(NO)C1(S(=O)(=O)c2ccc(OCCCc3nc(-c4ccc(OC(F)(F)F)cc4)no3)cc2)CCN(C2CC2)CC1 [Example 51, 1-cyclopropyl-N-hydroxy-4-{[4-(3-{3-[4-(trifluoromethoxy)phenyl]-1,2,4-oxadiazol-5-yl}propoxy)phenyl]sulfonyl}piperidine-4-carboxamide Hydrochloride]",7.03
11,O=C(NO)C1(S(=O)(=O)c2ccc(OCCCn3nnc(-c4ccc(OC(F)(F)F)cc4)n3)cc2)CCN(CC2CC2)CC1 [Example 53],6.16
12,NC(=O)c1cccc(OCCOc2ccc(S(=O)(=O)C3(C(=O)NO)CCOCC3)cc2)c1 [Example 54],7.19

# Same assay, conditions: value in parenthesis
row,SMILES,pKi
1,CC(C)C(=O)c1cccc(CCCOc2ccc(S(=O)(=O)C3(C(=O)NO)CCOCC3)cc2)c1 [Example 95],6.83
2,O=C(NO)C1(S(=O)(=O)c2ccc(OCCCc3cccc(-c4ccco4)c3)cc2)CCOCC1 [Example 97],6.53
3,O=C(NO)C1(S(=O)(=O)c2ccc(OCCCc3cccc(Cc4ccccc4)c3)cc2)CCOCC1 [Example 98],6.20
4,O=C(NO)C1(S(=O)(=O)c2ccc(OCCc3cccc(-c4ccncc4)c3)cc2)CCOCC1 [Example 113],7.37
5,O=C(NO)C1(S(=O)(=O)c2ccc(OCCc3cccc(-c4ccccc4F)c3)cc2)CCOCC1 [Example 115],6.09
6,O=C(NO)C1(S(=O)(=O)c2ccc(OCCc3cccc(-c4ccc(F)cc4)c3)cc2)CCOCC1 [Example 123],6.10
7,O=C(NO)C1(S(=O)(=O)c2ccc(OCCc3cccc(-c4cccnc4)c3)cc2)CCOCC1 [Example 125],7.29
8,Cc1ccc(-c2cccc(CCOc3ccc(S(=O)(=O)C4(C(=O)NO)CCOCC4)cc3)c2)cc1 [Example 127],5.67
9,O=C(NO)C1(S(=O)(=O)c2ccc(OCCCc3cccc(-c4ccc(F)cc4)c3)cc2)CCN(C2CC2)CC1 [Example 139],5.85
10,COCCN1CCC(C(=O)NO)(S(=O)(=O)c2ccc(OCCCc3cccc(-c4ccc(F)cc4)c3)cc2)CC1 [Example 140],6.15
11,O=C1Nc2ccc(-c3noc(CCCOc4ccc(S(=O)(=O)C5(C(=O)NO)CCN(C6CC6)CC5)cc4)n3)cc21 [Example 142],7.02
12,O=C(NO)C1(S(=O)(=O)c2ccc(OCCCc3cccc(-c4ccc(OC(F)(F)F)cc4)c3)cc2)CCOCC1 [Example 147],< 5.00
13,O=C(NO)C1(S(=O)(=O)c2ccc(OCCCc3cccc(-c4ccccn4)c3)cc2)CCOCC1 [Example 148],6.67
14,O=C(NO)C1(S(=O)(=O)c2ccc(OCCCc3cccc(-c4ccncc4)c3)cc2)CCOCC1 [Example 149],7.08
15,O=C(NO)C1(S(=O)(=O)c2ccc(OCCCc3cccc(-c4cccnc4)c3)cc2)CCOCC1 [Example 150],6.80
16,COCCN1CCC(C(=O)NO)(S(=O)(=O)c2ccc(OCCCc3nc(-c4ccccc4OC(F)(F)F)no3)cc2)CC1 [Example 152],6.83
17,O=C(NO)C1(S(=O)(=O)c2ccc(OCCCc3cccc(Br)c3)cc2)CCOCC1 [Example 154],7.47
18,CCc1ccccc1-c1noc(CCCOc2ccc(S(=O)(=O)C3(C(=O)NO)CCN(CCOC)CC3)cc2)n1 [Example 155],7.42
19,O=C(NO)C1(S(=O)(=O)c2ccc(OCCOc3cccc(-c4ccccc4)c3)cc2)CCOCC1 [Example 157],6.38
20,CC(C)c1ccc(-c2cccc(CCCOc3ccc(S(=O)(=O)C4(C(=O)NO)CCOCC4)cc3)c2)cc1 [Example 160],< 5.00
21,O=C(NO)C1(S(=O)(=O)c2ccc(OCCCc3cccc(-c4cccc(F)c4)c3)cc2)CCOCC1 [Example 161],5.75
22,O=C(NO)C1(S(=O)(=O)c2ccc(OCCCc3cccc(-c4ccccc4Cl)c3)cc2)CCOCC1 [Example 162],5.63
23,O=C(NO)C1(S(=O)(=O)c2ccc(OCCCc3cccc(-c4ccccc4F)c3)cc2)CCOCC1 [Example 163],6.00
24,Cc1ccccc1-c1cccc(CCCOc2ccc(S(=O)(=O)C3(C(=O)NO)CCOCC3)cc2)c1 [Example 164],6.01
25,Cc1ccc(-c2cccc(CCCOc3ccc(S(=O)(=O)C4(C(=O)NO)CCOCC4)cc3)c2)cc1C [Example 165],< 5.00
26,COCCN1CCC(C(=O)NO)(S(=O)(=O)c2ccc(OCCCc3nc(-c4ccc(CC(C)C)cc4)no3)cc2)CC1 [Example 175],6.06
27,COCCN1CCC(C(=O)NO)(S(=O)(=O)c2ccc(OCCCc3nnc(-c4ccccc4C(F)(F)F)o3)cc2)CC1 [Example 178],7.41
28,O=C(CCCOc1ccc(S(=O)(=O)C2(C(=O)NO)CCOCC2)cc1)Nc1cccc(OC(F)(F)F)c1 [Example 181],7.80
29,CC(C)c1cccc(NC(=O)CCCOc2ccc(S(=O)(=O)C3(C(=O)NO)CCOCC3)cc2)c1 [Example 182],7.46
30,COCCN1CCC(C(=O)NO)(S(=O)(=O)c2ccc(OCCCc3nc(-c4ccc(OC(F)(F)F)cc4)no3)cc2)CC1 [Example 190],6.55
